Results on 32 compounds are retold here after patent publication US10214519B2, “Phosphatidylinositol 3-kinase inhibitors” (Gilead Sciences, Inc., priority 2016, dated 2019).

The test deals with PI3Kβ (Homo sapiens (Human), UniProt P42338). Put plainly: PI3K isoform TR-FRET enzymatic assay (PI3Kβ). Format: biochemical. To be noted: 2× Km ATP, 30 minutes at 25° C. In short, it runs like this: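 IC50 came from four-parameter dose-response fits, normalized between DMSO and 1 μM wortmannin controls. The read-out was TR-FRET (615/665 nm) of PIP3 displacing fluorescent PIP3 from Europium GRP-1 after 10 mM EDTA termination. Compounds were incubated with purified heterodimeric PI3Kβ for 30 min at 25° C.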
On the technique in general: Time-resolved FRET reads energy transfer from a long-lived donor to a nearby acceptor.

Each structure is given as a SMILES string.

PI3Kβ, sequence (P42338 whole entry, canonical isoform): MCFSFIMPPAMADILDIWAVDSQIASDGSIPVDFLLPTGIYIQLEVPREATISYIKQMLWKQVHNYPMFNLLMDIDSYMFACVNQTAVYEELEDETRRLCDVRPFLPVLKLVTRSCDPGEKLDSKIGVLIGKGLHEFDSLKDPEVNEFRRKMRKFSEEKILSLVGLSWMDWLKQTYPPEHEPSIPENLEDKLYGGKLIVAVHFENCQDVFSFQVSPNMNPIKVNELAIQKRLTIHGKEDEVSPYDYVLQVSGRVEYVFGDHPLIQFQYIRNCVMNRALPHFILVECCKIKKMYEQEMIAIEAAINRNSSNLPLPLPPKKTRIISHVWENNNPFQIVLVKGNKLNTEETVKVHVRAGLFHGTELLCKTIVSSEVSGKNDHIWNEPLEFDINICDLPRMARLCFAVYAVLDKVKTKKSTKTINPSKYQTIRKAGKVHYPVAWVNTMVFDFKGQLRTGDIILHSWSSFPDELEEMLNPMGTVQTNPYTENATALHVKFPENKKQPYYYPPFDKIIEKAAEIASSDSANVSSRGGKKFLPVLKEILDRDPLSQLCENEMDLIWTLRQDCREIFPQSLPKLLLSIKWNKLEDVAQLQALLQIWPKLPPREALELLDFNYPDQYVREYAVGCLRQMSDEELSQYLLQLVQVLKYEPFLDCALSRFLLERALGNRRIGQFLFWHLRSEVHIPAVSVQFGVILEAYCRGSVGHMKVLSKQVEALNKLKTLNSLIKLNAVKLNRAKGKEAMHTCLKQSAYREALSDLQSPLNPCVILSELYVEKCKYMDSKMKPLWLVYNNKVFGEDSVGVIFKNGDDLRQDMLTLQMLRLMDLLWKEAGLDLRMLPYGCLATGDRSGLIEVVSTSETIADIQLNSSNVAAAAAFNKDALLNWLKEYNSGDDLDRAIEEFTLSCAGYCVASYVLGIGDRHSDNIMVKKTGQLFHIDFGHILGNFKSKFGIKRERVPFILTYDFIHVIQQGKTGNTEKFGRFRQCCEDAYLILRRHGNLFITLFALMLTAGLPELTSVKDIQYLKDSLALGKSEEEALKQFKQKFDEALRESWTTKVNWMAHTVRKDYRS
PI3Kβ, sequence (P27986 whole entry partner, canonical isoform): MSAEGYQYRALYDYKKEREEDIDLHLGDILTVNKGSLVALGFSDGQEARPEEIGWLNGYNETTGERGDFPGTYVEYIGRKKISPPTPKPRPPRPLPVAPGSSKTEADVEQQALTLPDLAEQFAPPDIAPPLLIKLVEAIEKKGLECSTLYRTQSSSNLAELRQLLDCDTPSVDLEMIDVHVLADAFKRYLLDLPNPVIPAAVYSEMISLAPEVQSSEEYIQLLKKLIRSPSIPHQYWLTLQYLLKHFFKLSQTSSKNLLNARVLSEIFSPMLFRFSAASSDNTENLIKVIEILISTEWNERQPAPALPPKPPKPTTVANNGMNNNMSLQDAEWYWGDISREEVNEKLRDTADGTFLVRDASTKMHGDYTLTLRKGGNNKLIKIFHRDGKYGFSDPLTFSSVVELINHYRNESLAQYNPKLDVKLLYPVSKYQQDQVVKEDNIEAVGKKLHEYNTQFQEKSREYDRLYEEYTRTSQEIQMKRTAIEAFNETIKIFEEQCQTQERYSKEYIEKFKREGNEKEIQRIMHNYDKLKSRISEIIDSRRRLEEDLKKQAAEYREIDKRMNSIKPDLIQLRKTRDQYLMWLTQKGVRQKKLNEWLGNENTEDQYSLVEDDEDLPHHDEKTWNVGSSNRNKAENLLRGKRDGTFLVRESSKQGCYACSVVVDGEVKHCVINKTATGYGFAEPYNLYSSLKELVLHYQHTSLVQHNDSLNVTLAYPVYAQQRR

What is called IC50 is the concentration that inhibits the measured activity by half. A low value points to greater potency. In turn, `CC(C)Cc1nc2c(-c3ncco3)cc(N3CCOCC3)cc2n1-c1ccnc2c(F)ccc(F)c12` [Example 219, 4-[3-(5,8-difluoroquinolin-4-yl)-2-(2-methylpropyl)-7-(1,3-oxazol-2-yl)benzimidazol-5-yl]morpholine] had an IC50 of 8 nM.
Then `Clc1cccc2c(-n3c(-c4cnco4)nc4c(-c5nnc[nH]5)cc(N5CCOCC5)cc43)ccnc12` [Example 112, 4-[3-(8-chloroquinolin-4-yl)-2-(1,3-oxazol-5-yl)-7-(4H-1,2,4-triazol-3-yl)benzimidazol-5-yl]morpholine], with 17 nM; and `Cc1nc2c(-c3cccs3)cc(N3CCOCC3)cc2n1-c1ccnc2c(Cl)cccc12` [Example 271, 4-[3-(8-chloroquinolin-4-yl)-2-methyl-7-thiophen-2-ylbenzimidazol-5-yl]morpholine], with 46 nM; and `CCc1nc2c(-c3nnc[nH]3)cc(N3CCOCC3)cc2n1-c1ccnc2c(F)ccc(Cl)c12` [Example 5, 4-(1-(5-chloro-8-fluoroquinolin-4-yl)-2-ethyl-4-(4H-1,2,4-triazol-3-yl)-1H-benzo[d]imidazol-6-yl)morpholine], with 29 nM.
Then `Cc1nc2c(-c3nnc[nH]3)cc(N3CCOCC3)cc2n1-c1c(C2CC2)cnc2ccccc12` [Example 66, 4-[3-(3-cyclopropylquinolin-4-yl)-2-methyl-7-(4H-1,2,4-triazol-3-yl)benzimidazol-5-yl]morpholine], with 16 nM.
`Cc1csc(-c2cc(N3CCOCC3)cc3c2nc(C2CC2)n3-c2ccnc3c(Cl)cccc23)n1` [Example 234, 4-[3-(8-chloroquinolin-4-yl)-2-cyclopropyl-7-(4-methyl-1,3-thiazol-2-yl)benzimidazol-5-yl]morpholine] displayed an IC50 of 100 nM.
Then `Cc1nnc(-c2cc(N3CCOCC3)cc3c2nc(C)n3-c2ccnc3c(Cl)cccc23)[nH]1` [Example 129, 4-[3-(8-chloroquinolin-4-yl)-2-methyl-7-(5-methyl-4H-1,2,4-triazol-3-yl)benzimidazol-5-yl]morpholine], with 23 nM.
`Fc1ccc(F)c2c(-n3c(C4CC4)nc4c(-c5nccs5)cc(N5CCOCC5)cc43)ccnc12` [Example 241, 4-[2-cyclopropyl-3-(5,8-difluoroquinolin-4-yl)-7-(1,3-thiazol-2-yl)benzimidazol-5-yl]morpholine] returned an IC50 of 27 nM.
Then `FC1(c2nc3c(-c4nnc[nH]4)cc(N4CCOCC4)cc3n2-c2ccnc3c(Cl)cccc23)CC1` [Example 54, 4-(1-(8-chloroquinolin-4-yl)-2-(1-fluorocyclopropyl)-4-(4H-1,2,4-triazol-3-yl)-1H-benzo[d]imidazol-6-yl)morpholine], with 14 nM; and `Cc1nc2c(-c3ncco3)cc(N3CCOCC3)cc2n1-c1ccnc2c(F)ccc(F)c12` [Example 229, 4-[3-(5,8-difluoroquinolin-4-yl)-2-methyl-7-(1,3-oxazol-2-yl)benzimidazol-5-yl]morpholine], with 5 nM.
With `Cc1nc2c(-c3nnc[nH]3)cc(N3CCOCC3)cc2n1-c1cc(C#N)nc2ccccc12` [Example 67, 4-[2-methyl-6-morpholin-4-yl-4-(4H-1,2,4-triazol-3-yl)benzimidazol-1-yl]quinoline-2-carbonitrile] the figure was 99 nM; with `CCc1nc2c(-c3nnc[nH]3)cc(N3CCOCC3)cc2n1-c1c(C)cnc2c(C#N)cccc12` (atropisomer, axis not shown) [Compound 364, 4-(2-ethyl-6-morpholino-4-(4H-1,2,4-triazol-3-yl)-1H-benzo[d]imidazol-1-yl)-3-methylquinoline-8-carbonitrile], 25 nM.
Regarding `Cc1nnc(-c2cc(N3CCOCC3)cc3c2nc(C2CCCO2)n3-c2ccnc3c(Cl)cccc23)[nH]1` (centres unmarked) [Example 16, 4-(1-(8-chloroquinolin-4-yl)-4-(5-methyl-4H-1,2,4-triazol-3-yl)-2-(tetrahydrofuran-2-yl)-1H-benzo[d]imidazol-6-yl)morpholine], the IC50 came out at 53 nM.
Then `Clc1ncc(-c2cc(N3CCOCC3)cc3c2ncn3-c2ccnc3c(Cl)cccc23)[nH]1` [Example 285, 4-[7-(2-chloro-1H-imidazol-5-yl)-3-(8-chloroquinolin-4-yl)benzimidazol-5-yl]morpholine], with 4 nM; and `Cc1nc2c(-c3ccsc3)cc(N3CCOCC3)cc2n1-c1ccnc2c(Cl)cccc12` [Example 272, 4-[3-(8-chloroquinolin-4-yl)-2-methyl-7-thiophen-3-ylbenzimidazol-5-yl]morpholine], with 65 nM; and `CCc1nc2c(-c3ncc[nH]3)cc(N3CCOCC3)cc2n1-c1ccnc2c(F)ccc(F)c12` (atropisomer, axis not shown) [Compound 370, 4-(1-(5,8-difluoroquinolin-4-yl)-2-ethyl-4-(1H-imidazol-2-yl)-1H-benzo[d]imidazol-6-yl)morpholine], with 13 nM.
In turn, `CCc1nc2c(-c3nnc[nH]3)cc(N3CCOCC3)cc2n1-c1ccnc2c(F)ccc(F)c12` [Example 125, 4-[3-(5,8-difluoroquinolin-4-yl)-2-ethyl-7-(4H-1,2,4-triazol-3-yl)benzimidazol-5-yl]morpholine] came in with an IC50 of 16 nM.
With `CCc1nc2c(-c3ncco3)cc(N3CCOCC3)cc2n1-c1ccnc2c(F)cccc12` [Example 213, 4-[2-ethyl-3-(8-fluoroquinolin-4-yl)-7-(1,3-oxazol-2-yl)benzimidazol-5-yl]morpholine] the figure was 16 nM; with `Cc1nc2c(-c3nnc(C4CC4)[nH]3)cc(N3CCOCC3)cc2n1-c1ccnc2c(Cl)cccc12` [Example 135, 4-[3-(8-chloroquinolin-4-yl)-7-(5-cyclopropyl-4H-1,2,4-triazol-3-yl)-2-methylbenzimidazol-5-yl]morpholine], 43 nM.
Then `CCc1nc2c(-c3cnc(Cl)[nH]3)cc(N3CCOCC3)cc2n1-c1cc(C)nc2c(F)cccc12` [Example 283, 4-[7-(2-chloro-1H-imidazol-5-yl)-2-ethyl-3-(8-fluoro-2-methylquinolin-4-yl)benzimidazol-5-yl]morpholine], with 71 nM; and `CCc1nc2c(-c3cnc(C)[nH]3)cc(N3CCOCC3)cc2n1-c1ccnc2c(F)ccc(F)c12` [Example 206, 4-[3-(5,8-difluoroquinolin-4-yl)-2-ethyl-7-(2-methyl-1H-imidazol-5-yl)benzimidazol-5-yl]morpholine], with 40 nM.
Then `Cc1nc2c(-c3cccc(C(N)=O)c3)cc(N3CCOCC3)cc2n1-c1ccnc2c(Cl)cccc12` [Example 321, 3-[1-(8-chloroquinolin-4-yl)-2-methyl-6-morpholin-4-ylbenzimidazol-4-yl]benzamide], with 4400 nM; and `Cc1nnc(-c2cc(N3CCOCC3)cc3c2ncn3-c2ccnc3c(F)ccc(F)c23)[nH]1` [Example 44, 4-(1-(5,8-difluoroquinolin-4-yl)-4-(5-methyl-4H-1,2,4-triazol-3-yl)-1H-benzo[d]imidazol-6-yl)morpholine], with 19 nM; and `Cc1nc2c(-c3nnc(N)s3)cc(N3CCOCC3)cc2n1-c1ccnc2cc(F)ccc12` [Example 165, 5-(1-(7-fluoroquinolin-4-yl)-2-methyl-6-morpholino-1H-benzo[d]imidazol-4-yl)-1,3,4-thiadiazol-2-amine], with 720 nM.
Compound `Cc1n[nH]c(-c2cc(N3CCOCC3)cc3c2nc(C)n3-c2c(C)cnc3c(Cl)cccc23)n1` [Example 78, 4-[3-(8-chloro-3-methylquinolin-4-yl)-2-methyl-7-(3-methyl-1H-1,2,4-triazol-5-yl)benzimidazol-5-yl]morpholine] showed an IC50 of 27 nM.
Turning to `Cc1nc2c(-c3ncco3)cc(N3CCOCC3)cc2n1-c1ccnc2c(F)cccc12` (atropisomer, axis not shown) [Example 340, 4-[3-(8-fluoroquinolin-4-yl)-2-methyl-7-(1,3-oxazol-2-yl)benzimidazol-5-yl]morpholine], half-maximal inhibition (IC50) was put at 1900 nM.
With `CCCc1nc2c(-c3nnc[nH]3)cc(N3CCOCC3)cc2n1-c1ccnc2c(F)cc(F)cc12` [Example 146, 4-[3-(6,8-difluoroquinolin-4-yl)-2-propyl-7-(4H-1,2,4-triazol-3-yl)benzimidazol-5-yl]morpholine] the figure was 101 nM; with `Cc1nc2c(-c3nnc[nH]3)cc(N3CCOCC3)cc2n1-c1ccnc2c(F)ccc(Cl)c12` (atropisomer, axis not shown) [Compound 345, 4-[3-(5-chloro-8-fluoroquinolin-4-yl)-2-methyl-7-(4H-1,2,4-triazol-3-yl)benzimidazol-5-yl]morpholine], 4460 nM.
With `c1ccc2c(-n3cnc4c(-c5nnc[nH]5)cc(N5CCOCC5)cc43)cc(-c3cc[nH]n3)nc2c1` [Example 383, 4-(1-(2-(1H-pyrazol-3-yl)quinolin-4-yl)-4-(4H-1,2,4-triazol-3-yl)-1H-benzo[d]imidazol-6-yl)morpholine] the figure was 11 nM; with `Cc1nc2c(-c3nnc[nH]3)cc(N3CCOCC3)cc2n1-c1cc(N2CCNCC2)nc2ccccc12` [Example 168, 4-(2-methyl-1-(2-(piperazin-1-yl)quinolin-4-yl)-4-(4H-1,2,4-triazol-3-yl)-1H-benzo[d]imidazol-6-yl)morpholine 2,2,2-trifluoroacetate], 9 nM.
Then `c1ccc2c(-n3cnc4c(-c5nnc[nH]5)cc(N5CCOCC5)cc43)cc(-c3cn[nH]c3)nc2c1` [Example 381, 4-(1-(2-(1H-pyrazol-4-yl)quinolin-4-yl)-4-(4H-1,2,4-triazol-3-yl)-1H-benzo[d]imidazol-6-yl)morpholine], with 24 nM; and `CCCc1nc2c(-c3nnc[nH]3)cc(N3CCOCC3)cc2n1-c1ccnc2c(F)cccc12` (atropisomer, axis not shown) [Compound 355, 4-[3-(8-fluoroquinolin-4-yl)-2-propyl-7-(4H-1,2,4-triazol-3-yl)benzimidazol-5-yl]morpholine], with 2500 nM.
